Measurements: US20260053932A1, “COMPOUNDS AND METHODS FOR THE TARGETED DEGRADATION OF ANDROGEN RECEPTOR AND ASSOCIATED METHODS OF USE” (Arvinas Operations, Inc., priority 2020, published 2026)

Tested on: androgen receptor (AR) in LNCaP and/or VCaP cells
Assay: Androgen Receptor ELISA assay (AR degradation)
Assay type: cell-based
Conditions: LNCaP and/or VCaP cells; 5 hours incubation; media with R1881; read-out: DC50 Code* (degradation of AR ELISA)
How it was run: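 VCaP cells grown ≥3 days, then treated 5 h with compound in media containing 1 nM R1881 (10× stock). Cells lysed and AR quantified by sandwich ELISA (mouse AR detection Ab, HRP anti-mouse, TMB). DC50 and Dmax derived from AR degradation.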

| SMILES | DC50 |
| --- | --- |
| COc1cc(O[C@H]2CC[C@H](NC(=O)c3cnc(N4CCC(CN(C)[C@H]5C[C@H](Oc6ccc7c(c6)C(=O)N(C6CCC(=O)NC6=O)C7=O)C5)CC4)cn3)CC2)ccc1C#N (some centres unmarked) [Compound 39, N-((1r,4r)-4-(4-cyano-3-methoxyphenoxy)cyclohexyl)-5-(4-((((1r,3r)-3-((2-(2,6-dioxopiperidin-3-yl)-1,3-dioxoisoindolin-5-yl)oxy)cyclobutyl) (methyl)amino)methyl)piperidin-1-yl)pyrazine-2-carboxamide] | < 1 nM |
| COc1cc(O[C@H]2CC[C@H](NC(=O)c3cnc(N4CC5(CC(CN(C(C)C)[C@H]6C[C@H](Oc7ccc8c(c7)C(=O)N(C7CCC(=O)NC7=O)C8=O)C6)C5)C4)cn3)CC2)ccc1C#N (some centres unmarked) [Compound 56, N-((1r,4r)-4-(4-cyano-3-methoxyphenoxy)cyclohexyl)-5-(6-((((1r,3r)-3-((2-(2,6-dioxopiperidin-3-yl)-1,3-dioxoisoindolin-5-yl)oxy)cyclobutyl) (isopropyl)amino)methyl)-2-azaspiro[3.3]heptan-2-yl)pyrazine-2-carboxamide] | < 1 nM |
| N#Cc1ccc(O[C@H]2CC[C@H](NC(=O)c3cnc(N4CCC(CN(CC5COC5)[C@H]5C[C@H](Oc6ccc7c(c6)C(=O)N(C6CCC(=O)NC6=O)C7)C5)CC4)cn3)CC2)cc1Cl (some centres unmarked) [Compound 48, N-((1r,4r)-4-(3-chloro-4-cyanophenoxy)cyclohexyl)-5-(4-((((1r,3r)-3-((2-(2,6-dioxopiperidin-3-yl)-3-oxoisoindolin-5-yl)oxy)cyclobutyl)(oxetan-3-ylmethyl)amino)methyl)piperidin-1-yl)pyrazine-2-carboxamide] | < 1 nM |
| COc1cc(O[C@H]2CC[C@H](NC(=O)c3cnc(N4CCC(CN(C(C)C)[C@H]5C[C@H](Oc6ccc7c(c6)C(=O)N(C6CCC(=O)NC6=O)C7=O)C5)CC4)cn3)C2)ccc1C#N (stereo partly drawn) [Compound 7, N-((1S,3S)-3-(4-cyano-3-methoxyphenoxy)cyclopentyl)-5-(4-((((1r,3S)-3-((2-(2,6-dioxopiperidin-3-yl)-1,3-dioxoisoindolin-5-yl)oxy)cyclobutyl) (isopropyl)amino)methyl)piperidin-1-yl)pyrazine-2-carboxamide] | > 100 nM |
| N#Cc1ccc(O[C@H]2CC[C@H](NC(=O)c3cnc(N4CCC(CN(C5CCOC5)[C@H]5C[C@H](Oc6ccc7c(c6)C(=O)N(C6CCC(=O)NC6=O)C7=O)C5)CC4)cn3)CC2)cc1Cl (some centres unmarked) [Compound 62, N-((1r,4r)-4-(3-chloro-4-cyanophenoxy)cyclohexyl)-5-(4-((((1r,3r)-3-((2-(2,6-dioxopiperidin-3-yl)-1,3-dioxoisoindolin-5-yl)oxy)cyclobutyl) (tetrahydrofuran-3-yl)amino)methyl)piperidin-1-yl)pyrazine-2-carboxamide] | < 1 nM |

Same assay, conditions: degradation of AR ELISA in LNCaP and/or VCaP cells; Table 2C; read-out: DC50 Code*

| SMILES | DC50 |
| --- | --- |
| CC(C)N(CC1CCN(c2cnc(C(=O)N[C@H]3C(C)(C)[C@H](Oc4ccc(C#N)c(Cl)c4)C3(C)C)cn2)CC1)[C@H]1C[C@H](Oc2ccc3c(c2)C2(CC2)N(C2CCC(=O)NC2=O)C3=O)C1 (some centres unmarked) [compound 138, N-((1r,3r)-3-(3-chloro-4-cyanophenoxy)-2,2,4,4-tetramethylcyclobutyl)-5-(4-((((1r,3r)-3-((2′-(2,6-dioxopiperidin-3-yl)-3′-oxospiro[cyclopropane-1,1′-isoindolin]-6′-yl)oxy)cyclobutyl) (isopropyl)amino)methyl)piperidin-1-yl)pyrazine-2-carboxamide] | > 100 nM |
| CC1(C)[C@H](NC(=O)c2ccn([C@H]3CC[C@H](CCCOc4ccc5c(c4)C(=O)N(C4CCC(=O)NC4=O)C5=O)CC3)n2)C(C)(C)[C@H]1Oc1ccc(C#N)c(Cl)c1 (stereo partly drawn) [compound 140, N-((1r,3R)-3-(3-chloro-4-cyanophenoxy)-2,2,4,4-tetramethylcyclobutyl)-1-((1r,4R)-4-(3-((2-(2,6-dioxopiperidin-3-yl)-1,3-dioxoisoindolin-5-yl)oxy)propyl)cyclohexyl)-1H-pyrazole-3-carboxamide] | > 100 nM |
| COCCN(CC1CCN(c2ccc(C(=O)N[C@H]3C(C)(C)[C@H](Oc4ccc(C#N)c(Cl)c4)C3(C)C)cc2)CC1)[C@H]1C[C@H](Oc2ccc3c(c2)C(=O)N(C2CCC(=O)NC2=O)C3=O)C1 (some centres unmarked) [compound 184, N-((1r,3r)-3-(3-chloro-4-cyanophenoxy)-2,2,4,4-tetramethylcyclobutyl)-4-(4-((((1r,3r)-3-((2-(2,6-dioxopiperidin-3-yl)-1,3-dioxoisoindolin-5-yl)oxy)cyclobutyl)(2-methoxyethyl)amino)methyl)piperidin-1-yl)benzamide] | < 1 nM |
| Cc1cc(O[C@H]2C(C)(C)[C@H](NC(=O)c3cnc(N4CCC(CN(CCN5CCOCC5)[C@H]5C[C@H](Oc6ccc7c(c6)C(=O)N(C6CCC(=O)NC6=O)C7=O)C5)CC4)nc3)C2(C)C)cc(C)c1C#N (some centres unmarked) [compound 90, N-((1r,3r)-3-(4-cyano-3,5-dimethylphenoxy)-2,2,4,4-tetramethylcyclobutyl)-2-(4-((((1r,3r)-3-((2-(2,6-dioxopiperidin-3-yl)-1,3-dioxoisoindolin-5-yl)oxy)cyclobutyl)(2-morpholinoethyl)amino)methyl)piperidin-1-yl)pyrimidine-5-carboxamide] | < 1 nM |
| Cc1cc(O[C@H]2C(C)(C)[C@H](NC(=O)c3ccc(CN4CCOC[C@@H]4CN4CCN(c5ccc6c(c5)C(=O)N(C5CCC(=O)NC5=O)C6=O)CC4)cc3)C2(C)C)cc(C)c1C#N (stereo partly drawn) [compound 196, N-((1r,3S)-3-(4-cyano-3,5-dimethylphenoxy)-2,2,4,4-tetramethylcyclobutyl)-4-(((3S)-3-((4-(2-(2,6-dioxopiperidin-3-yl)-1,3-dioxoisoindolin-5-yl)piperazin-1-yl)methyl)morpholino)methyl)benzamide] | < 1 nM |
| Cc1cc(O[C@H]2C(C)(C)[C@H](NC(=O)c3ccc(N4CCC(CN5CCCC[C@@H]5COc5ccc6c(c5)C(=O)N(C5CCC(=O)NC5=O)C6=O)CC4)cc3)C2(C)C)cc(C)c1C#N (stereo partly drawn) [compound 192, N-((1r,3R)-3-(4-cyano-3,5-dimethylphenoxy)-2,2,4,4-tetramethylcyclobutyl)-4-(4-(((2R)-2-(((2-(2,6-dioxopiperidin-3-yl)-1,3-dioxoisoindolin-5-yl)oxy)methyl)piperidin-1-yl)methyl)piperidin-1-yl)benzamide] | < 1 nM |
| COc1cc(O[C@H]2C[C@H](N(C)C3CCN(c4ccc(C(=O)N[C@H]5C(C)(C)[C@H](Oc6cc(C)c(C#N)c(C)c6)C5(C)C)cc4)CC3)C2)cc2c1C(=O)N(C1CCC(=O)NC1=O)C2=O (mixture of isomers) [compound 189, rac-N-((1r,3r)-3-(4-cyano-3,5-dimethylphenoxy)-2,2,4,4-tetramethylcyclobutyl)-4-(4-(((1r,3r)-3-((2-(2,6-dioxopiperidin-3-yl)-7-methoxy-1,3-dioxoisoindolin-5-yl)oxy)cyclobutyl) (methyl)amino)piperidin-1-yl)benzamide] | < 1 nM |
| Cc1cc(O[C@H]2C(C)(C)[C@H](NC(=O)c3cnc(N4CCC(CN(CC(F)F)[C@H]5C[C@H](Oc6ccc7c(c6)C(=O)N(C6CCC(=O)NC6=O)C7)C5)CC4)nc3)C2(C)C)cc(C)c1C#N (some centres unmarked) [compound 109, N-((1r,3r)-3-(4-cyano-3,5-dimethylphenoxy)-2,2,4,4-tetramethylcyclobutyl)-2-(4-(((2,2-difluoroethyl)((1r,3r)-3-((2-(2,6-dioxopiperidin-3-yl)-3-oxoisoindolin-5-yl)oxy)cyclobutyl)amino)methyl)piperidin-1-yl)pyrimidine-5-carboxamide] | < 1 nM |
| CCOc1cc(O[C@H]2C(C)(C)[C@H](NC(=O)c3cnc(N4CC(CN(C(C)C)[C@H]5C[C@H](Oc6ccc7c(c6)C(=O)N(C6CCC(=O)NC6=O)C7=O)C5)C4)cn3)C2(C)C)ccc1C#N (some centres unmarked) [compound 134, N-((1r,3r)-3-(4-cyano-3-ethoxyphenoxy)-2,2,4,4-tetramethylcyclobutyl)-5-(3-((((1r,3r)-3-((2-(2,6-dioxopiperidin-3-yl)-1,3-dioxoisoindolin-5-yl)oxy)cyclobutyl) (isopropyl)amino)methyl)azetidin-1-yl)pyrazine-2-carboxamide] | 1 to 10 nM |
| Cc1cc(O[C@H]2C(C)(C)[C@H](NC(=O)c3cnc(N4CCC(CN(C(C)C)[C@H]5C[C@H](Oc6cccc7c6CN(C6CCC(=O)NC6=O)C7=O)C5)CC4)cn3)C2(C)C)cc(C)c1C#N (mixture of isomers) [compound 185, rac-N-((1r,3r)-3-(4-cyano-3,5-dimethylphenoxy)-2,2,4,4-tetramethylcyclobutyl)-5-(4-((((1r,3r)-3-((2-(2,6-dioxopiperidin-3-yl)-1-oxoisoindolin-4-yl)oxy)cyclobutyl) (isopropyl)amino)methyl)piperidin-1-yl)pyrazine-2-carboxamide] | < 1 nM |
| COc1cc2c(cc1O[C@H]1C[C@H](N(CC3CCN(c4cnc(C(=O)N[C@H]5C(C)(C)[C@H](Oc6cc(C)c(C#N)c(C)c6)C5(C)C)cn4)CC3)C(C)C)C1)C(=O)N(C1CCC(=O)NC1=O)C2=O (some centres unmarked) [Compound 199, N-((1r,3r)-3-(4-cyano-3,5-dimethylphenoxy)-2,2,4,4-tetramethylcyclobutyl)-5-(4-((((1r,3r)-3-((2-(2,6-dioxopiperidin-3-yl)-6-methoxy-1,3-dioxoisoindolin-5-yl)oxy)cyclobutyl)(isopropyl)amino)methyl)piperidin-1-yl)pyrazine-2-carboxamide] | < 1 nM |

Same assay, conditions: degradation of AR ELISA in LNCaP and/or VCaP cells; read-out: DC50 Code*

| SMILES | DC50 |
| --- | --- |
| CC1(C)[C@H](NC(=O)c2ccc(N3CCC(CN4CCN(c5ccc6c(c5)C(=O)N(C5(C#N)CCC(=O)NC5=O)C6)CC4)CC3)cc2)C(C)(C)[C@H]1Oc1ccc(C#N)c(Cl)c1 (mixture of isomers) [compound 241, rac-N-((1r,3r)-3-(3-chloro-4-cyanophenoxy)-2,2,4,4-tetramethylcyclobutyl)-4-(4-((4-(2-(3-cyano-2,6-dioxopiperidin-3-yl)-3-oxoisoindolin-5-yl)piperazin-1-yl)methyl)piperidin-1-yl)benzamide] | 1 to 10 nM |
